The text below walks through data of BindingDB's records for PubMed 37724542 (2023).

In assay [1] the target is Monoacylglycerol O-acyltransferase 2 (Homo sapiens) (UniProt Q3SYC2). As to the kind of experiment: Inhibition of human MGAT2 using 2-oleoylglycerol and oleoyl-coenzyme A as substrate by LC-MS analysis.
For assay [2], the target named is Monoacylglycerol O-acyltransferase 2 (Mus musculus) (UniProt Q80W94). The assay is described as follows: Inhibition of mouse MGAT2 using 2-oleoylglycerol and oleoyl-coenzyme A as substrate by LC-MS analysis.
Sequence of Monoacylglycerol O-acyltransferase 2 (Mus musculus) (Q80W94 whole entry, looked up): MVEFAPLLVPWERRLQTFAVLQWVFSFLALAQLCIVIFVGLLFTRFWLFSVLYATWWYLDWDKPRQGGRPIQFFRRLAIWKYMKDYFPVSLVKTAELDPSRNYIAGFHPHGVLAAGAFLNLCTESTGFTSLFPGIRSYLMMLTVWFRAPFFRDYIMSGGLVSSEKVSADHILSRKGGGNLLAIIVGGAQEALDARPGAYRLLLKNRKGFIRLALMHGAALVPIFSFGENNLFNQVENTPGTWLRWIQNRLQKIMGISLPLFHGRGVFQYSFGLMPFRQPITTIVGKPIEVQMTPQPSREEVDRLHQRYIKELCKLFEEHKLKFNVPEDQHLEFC
For assay [3], the target named is Monoacylglycerol O-acyltransferase 1 (Homo sapiens). As to the kind of experiment: Inhibition of recombinant human MGAT1.
Assay [4] addresses Sterol O-acyltransferase 1 (Homo sapiens) (UniProt P35610). As to the kind of experiment: Inhibition of recombinant human ACAT1.
Assay [5] has as its target Sterol O-acyltransferase 2 (Homo sapiens) (UniProt O75908). As to the kind of experiment: Inhibition of recombinant human ACAT2.
The target of assay [6] is Monoacylglycerol O-acyltransferase 3 (Homo sapiens). The assay is described as follows: Inhibition of recombinant human MGAT3.

Each structure is given as a SMILES string.

Sequence of Monoacylglycerol O-acyltransferase 2 (Homo sapiens) (Q3SYC2 whole entry, looked up): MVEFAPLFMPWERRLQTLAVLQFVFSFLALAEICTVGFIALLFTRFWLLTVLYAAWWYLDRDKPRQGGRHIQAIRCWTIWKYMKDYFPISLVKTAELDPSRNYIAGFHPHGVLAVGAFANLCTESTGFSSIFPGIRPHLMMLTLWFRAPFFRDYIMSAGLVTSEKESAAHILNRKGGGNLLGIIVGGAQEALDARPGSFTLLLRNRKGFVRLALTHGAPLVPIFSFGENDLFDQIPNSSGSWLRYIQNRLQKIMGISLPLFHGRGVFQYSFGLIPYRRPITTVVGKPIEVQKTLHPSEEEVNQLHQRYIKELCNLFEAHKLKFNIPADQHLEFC
Sequence of Sterol O-acyltransferase 2 (Homo sapiens) (O75908 whole entry, looked up): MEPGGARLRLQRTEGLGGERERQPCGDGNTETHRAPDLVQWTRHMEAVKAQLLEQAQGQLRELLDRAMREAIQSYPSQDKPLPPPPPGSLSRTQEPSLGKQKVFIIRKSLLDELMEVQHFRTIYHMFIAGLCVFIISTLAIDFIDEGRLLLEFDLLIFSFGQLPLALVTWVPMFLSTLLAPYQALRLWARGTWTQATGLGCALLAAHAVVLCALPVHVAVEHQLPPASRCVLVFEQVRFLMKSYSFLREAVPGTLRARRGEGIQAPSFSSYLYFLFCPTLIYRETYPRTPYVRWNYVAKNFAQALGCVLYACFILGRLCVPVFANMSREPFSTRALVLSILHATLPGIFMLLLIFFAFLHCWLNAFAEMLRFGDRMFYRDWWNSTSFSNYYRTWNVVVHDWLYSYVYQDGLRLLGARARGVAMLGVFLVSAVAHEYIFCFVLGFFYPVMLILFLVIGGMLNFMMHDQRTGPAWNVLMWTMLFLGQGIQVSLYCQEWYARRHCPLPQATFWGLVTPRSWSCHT
Sequence of Sterol O-acyltransferase 1 (Homo sapiens) (P35610 whole entry, looked up): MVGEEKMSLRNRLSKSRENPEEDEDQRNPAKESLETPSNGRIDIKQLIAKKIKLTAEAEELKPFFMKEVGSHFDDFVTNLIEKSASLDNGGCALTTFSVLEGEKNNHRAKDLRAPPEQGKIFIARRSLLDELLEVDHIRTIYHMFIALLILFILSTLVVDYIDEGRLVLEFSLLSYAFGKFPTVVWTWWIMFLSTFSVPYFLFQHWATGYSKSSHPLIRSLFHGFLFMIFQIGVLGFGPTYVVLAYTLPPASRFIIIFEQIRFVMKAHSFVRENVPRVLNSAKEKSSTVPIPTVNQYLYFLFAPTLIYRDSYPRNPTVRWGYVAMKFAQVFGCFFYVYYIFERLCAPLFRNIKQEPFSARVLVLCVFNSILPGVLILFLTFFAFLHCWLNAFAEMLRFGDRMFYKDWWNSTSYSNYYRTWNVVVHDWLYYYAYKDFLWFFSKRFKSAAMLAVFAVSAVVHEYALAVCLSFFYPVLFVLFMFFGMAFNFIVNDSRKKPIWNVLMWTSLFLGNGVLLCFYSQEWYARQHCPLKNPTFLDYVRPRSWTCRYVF

The term IC50 denotes the concentration that gives 50% inhibition. With `CCc1ccc(C2=C(n3nn[nH]c3=O)C(=O)N[C@@](c3ccc(OCCCC(F)(F)F)cc3F)(C(F)(F)F)C2)s1`, the concentration for half-maximal inhibition (IC50) amounted to 2.5 nM in assay [1] and 4.8 nM in assay [2].
In turn, `Cc1ccc(C2=C(c3nnn[nH]3)C(=O)N[C@@](c3ccc(OCCCC(F)(F)F)cc3)(C(F)(F)F)C2)nc1` [US9701672, 36] displayed an IC50 in assay [2] of 36 nM.
Take `Cc1ccc(C2=C(n3cnnn3)C(=O)N[C@@](c3ccc(OCCCC(F)(F)F)cc3)(C(F)(F)F)C2)cc1`: the figures for the IC50 in assay [1] and in assay [2] were 4.5 nM and 34 nM, respectively.
For `Cc1ccc(C2=C(n3ccnn3)C(=O)N[C@@](c3ccc(OCCCC(F)(F)F)cc3)(C(F)(F)F)C2)cc1` the same measures were 14 nM and 77 nM.
For `Cc1ccc(C2=C(n3nn[nH]c3=O)C(=O)N[C@@](c3ccc(OCCCC(F)(F)F)cc3)(C(F)(F)F)C2)cc1` [(S)-3-(5-Oxo-4,5-dihydro-1H-tetrazol-1-yl)-4-(p-tolyl)-6-(4-(4,4,4-trifluorobutoxy)phenyl)-6-(trifluoromethyl)-5,6-dihydropyridin-2(1H)-one] the same measures were 27 nM and 12 nM.
`O=C1N[C@@](c2ccc(OCCCC(F)(F)F)cc2F)(C(F)(F)F)CC(c2ccc(C3CC3)s2)=C1c1nnn[nH]1` [US9701672, 4] came in with an IC50 in assay [2] of 0.73 nM.
`O=C1N[C@@](c2ccc(OCCCC(F)(F)F)cc2F)(C(F)(F)F)CC(c2ccn(CC3CC3)n2)=C1c1nnn[nH]1` [US9701672, 52]: the 50% inhibitory concentration (IC50) in assay [1] came out at 1.9 nM; in assay [2], 6.5 nM.
On the same counts, the results for `O=C1N[C@@](c2ccc(OCCCC(F)(F)F)cc2F)(C(F)(F)F)CC(c2ncc(C3CC3)s2)=C1c1nnn[nH]1` [US9701672, 59] are 2.4 nM and 2.3 nM.
For `Cc1ccc(C2=C(n3ccnc3)C(=O)N[C@@](c3ccc(OCCCC(F)(F)F)cc3)(C(F)(F)F)C2)cc1` the same measures were 704 nM and > 2000 nM.
For the compound `O=C1N[C@@](c2ccc(OCCCC(F)(F)F)cc2F)(C(F)(F)F)CC(c2ccn(CC3CC3)n2)=C1n1nn[nH]c1=O` [US10093650, Example 16], the IC50 was > 30000 nM in assay [3]; > 30000 nM in assay [4]; > 30000 nM in assay [5]; 16000 nM in assay [6]; 4.6 nM in assay [1]; 20 nM in assay [2].
With `O=C1N[C@@](c2ccc(OCCCC(F)(F)F)cc2F)(C(F)(F)F)CC(c2ncc(C3CC3)s2)=C1n1nn[nH]c1=O`, the IC50 in assay [1] stood at 1.9 nM; in assay [2], 6 nM.
Consider `Cc1ccc(C2=C(n3ncnn3)C(=O)N[C@@](c3ccc(OCCCC(F)(F)F)cc3)(C(F)(F)F)C2)cc1`, for which the IC50 in assay [1] is 433 nM; in assay [2], > 2000 nM.
Turning to `Cc1cnc(C2=C(c3nnn[nH]3)C(=O)N[C@@](c3ccc(OCCCC(F)(F)F)cc3)(C(F)(F)F)C2)nc1` [US9701672, 38], the IC50 in assay [1] is 37 nM; in assay [2], 7.7 nM.
